# Measured values from paper PMC11035632, “Discovery of gefitinib-1,2,3-triazole derivatives against lung cancer via inducing apoptosis and inhibiting the colony formation” (Scientific Reports, 2024).
# Key:
# [1] = test system: H1299 cells; assay: Colony formation assay; assay type: cell-based, human; details: 7 days
# Source text: The colony formation assay is an important method for evaluating the ability of adherent cells to proliferate and form colonies on a plate, and it is widely used to assess cell proliferation. We also employed the colony formation assay to further confirm that compounds 7a and 7j can inhibit the proliferation of lung cancer cells, as shown in Fig. 5. After treating lung cancer cells with low, medium, and high concentrations (1, 2, 4 μmol/L) of compounds for 7 days, the number of cell colonies was counted to analyze the proliferation inhibition rate.
# H1299 cells were seeded in six-well plates at a density of 500 cells per well and treated with 7a or 7j (1, 2 and 4 μmol/L) for 7 days. Then, cells were per-fixed with 4% paraformaldehyde for 30 min, stained with 0.1% Crystal violet for 15 min, and then washed with pure water. Taking a picture after the plates were air-dry. The clone formations number was counted with Image J.
# [2] = test system: Kunming mice; assay: Acute oral toxicity test in mice; details: mouse, in vivo
# Source text: SPF-grade healthy Kunming mice (weighing 20 ± 2 g) were purchased from Henan Skibbes Bio-technology Co., Ltd (Licence No.: SCXK (Yu) 2020–0005). The mice were provided free access to drinking water and adaptive feeding for 7 days.
# Twenty Kunming mice (half male and half female) were randomly allocate into 4 groups: 7a-treated group (male), 7a-treated group (female), control group (male) and control group (female). The control groups were given PBS intragastric administration, while the 7a groups were given the 7a solution (400 mg/kg, respectively), once a day for 2 consecutive days. Body weight and appearance were monitored for a total period of 12 days (from the first day after treating with 7a). The mice were killed by cervical dislocation on the 12th day, and blood samples were collected for the biochemistry test. Then, we measured liver and kidney function indicators such as alanine aminotransferase (ALT), aspartate aminotransferase (AST), serum creatinine (CRE) and blood urea nitrogen (BUN) (Nanjing Jiancheng Bioengineering Institute, China). The organs (brain, heart, liver, spleen, lungs, kidneys stomach) were harvested, and fixed in 10% formaldehyde and paraffin-embedded for histological examination. Finally, these sections were stained with haematoxylin and eosin for light microscopic examination.
# [3] = test system: NCI-H1299 cells; assay: CCK-8 assay for cell proliferation and cytotoxicity, NCI-H1299; assay type: cell-based; details: Homo sapiens, CCK-8, 48 h
# Protocol: Three types of lung cells were seeded into 96-well plate at a density of 5 × 10^3 cells per well at logarithmic growth phase and cultured in 37 °C. […] After that, cell viability was determined according to the instruction of the CCK-8 assay. Next, 10 μL of CCK-8 solution was added to each well of the plate and incubate the plate for 1–4 h in the incubator. The absorbance was measured at 450 nm using a microplate reader (Bio-Tek). The percentage of viable cells was measured using the following formula where three independent experiments were performed: [(A450 sample − A450blank)/(A450 control − A450blank)] × 100%.
compound,measurement,setting,value
COc1cc2ncnc(Nc3cccc(-c4cn(Cc5cc(F)ccc5Br)nn4)c3)c2cc1OCCCN1CCOCC1 [Compound 7a],formation of H1299 cell colonies,[1]; 1 μmol/L,markedly inhibit
same,colony formation,"[1]; H1299, 4 μmol/L",almost completely suppressed
same,acute toxicity in mice,[2],low toxicity
same,IC50,[3],3.94 ± 0.17 µM
